Literature values, collected in article PMC3604136 (Nature chemical biology, 2013).

Test system: HIF-1 and HIF-2

acriflavine
HIF isoform inhibition: inhibits both HIF-1 and HIF-2
